Measurements reported in US20210212957A1, “MEDICAL DEVICE FOR PREVENTING AND/OR TREATING INFECTIONS OF SKIN LESIONS” (FASTMEDITALIA S.R.L., priority 2020, published 2021).

Tested on: Staphylococcus aureus (gram-positive bacterium; ATCC 6538)
Assay: bacterial reduction in a bacterial suspension in dynamic contact with the medical device
Assay type: cell-based
Settings: temperature environment; dynamic contact time 1 hour; 50 grams of bacterial suspension at 10^5 cells, 1 gram of medical device where present
Procedure: In Table 1, 50 grams of bacterial suspension at a concentration of 10^5 cells was subjected to dynamic contact with 1 gram of the medical device in the presence of cocamido-propyl-betaine (an amphoteric surfactant).
The same experiment was then carried out using no surfactant at all (Table 2) or non-ionic or anionic surfactants (Tables 3 and 4).

Compound | Bacterial reduction % [%]
CCCCCCCCCCCCOS(=O)(=O)[O-].[Na+] [Sodium dodecilsulphate] | 16
Polyoxyethylenesorbitan monolaurate | 5
cocamidopropyl betaine [2 g/l of cocamidopropyl betaine] | 12
